These results are taken from patent publication US8053583B2, “Anti-cancer compound and manufacturing method thereof” (National Defense Medical Center, priority 2008, dated 2011).

Entries after “also recorded” stand apart in the source; their conditions may differ.

Data set [1] concerns GBM 8401 (human brain glioblastoma) cells. The data set is described as follows: MTT colorimetric assay, GBM 8401 cells. As to conditions: for inhibition of proliferation of tumor cells GBM 8401 (in words): primary screening, 10 μM, criterion viability less than 80%; for viability at 10 µM: Homo sapiens, read-out: Cell viability (%) GBM 8401, conc. 10 μM. A general note: Formazan colour is commonly taken as a measure of viable cells.
From the text: (§1) MTT (tetrazole) assay used to determine tumor viability is based on measurement of the activity of dehydrogenase to determine cell growth conditions. In live cells, dehydrogenase in active mitochondria converts yellow MTT [3-(4,5-dimethylthiazol-2-yl)-2,5-diphenyltetra zolium bromide] into purple formazan on the reductive cleavage of its tetrazolium ring. The formazan crystal is examined under the microscope. While the mitochondria in dead cells are without active dehydrogenase, no crystal is generated and the color remains yellow. After adding MTT into cell cultures and reacting for 2 hours, the amount of generated formazan precipitate is proportional to total amount of dehydrogenase. Removing the culture medium, add DMSO to dissolve the purple formazan precipitate. Then measure the absorbance of the precipitate by is measured by the spectrophotometer at 560/670 nm so as to learn inhibition effect of drugs acted on normal cells and tumor cells.
(§2) GBM 8401, GBM 8901 (human brain glioblastoma) and SVG p12 (human brain astroglia)cells line are selected to be used in 96 well petri dishes. Each well is filled into the same amount of cells-about 5000 cells per well. After being cultured for 24 hours and cells anchor/attach, the 96 wells are divided into two groups-an experimental group and a control group containing no samples. The samples are diluted into 10 μg/mL by culture medium. Take 200 μL of each sample and add into the experimental group and the control group is added with 200 μL culture medium without samples. After 46 hours of culture, each well is added with 10 μL MTT solution, incubate cells at 37° C., 5% CO2 for 2 hours.
(§3) Then each well is added with 100 μL, dissolving formazan. Shaking for 10 minutes and measure the absorbance at 560/670 nm of the sample by the spectrometer. The data of the experimental group is divided by the data of the control group to get the estimated cell viability.
(§4) Three cell lines-GBM 8401, GBM 8901, SVG p12 (normal) are used in cytotoxicity tests of 1,8-bis-substituted amidoanthraquinone. After reacting with the drug for 46 hours, the cells are reacted with certain amount of MTT solution. After 2 hours, DMSO is used to dissolve formazan and O.D. (optical density) at 560/670 nm is measured. Then calculate the radios of the experimental groups (with drugs) to the control groups (without drugs).

For data set [2], the system named is GBM 8901 (human brain glioblastoma) cells. The experiment in a line: MTT colorimetric assay, GBM 8901 cells. As to conditions: for inhibition of growth of tumor cells GBM 8901 (in words): primary screening, 10 μM, criterion viability less than 80%; for viability at 10 µM: Homo sapiens, read-out: Cell viability (%) GBM 8901, conc. 10 μM.
From the text: as §1, §2, §3, §4
A short description of data set [3]: MTT colorimetric assay, normal SVG p12 cells. As to conditions: human, SVG p12 cells (normal human brain astroglia), Cell viability (%) SVG p12, conc. 10 μM, 46 hours with drug, then 2 hours MTT, ratio to control group without drug.
From the text: as §1, §2, §3, §4
[4] abbreviates: 46 hours with drug, then 2 hours MTT, ratio to control group without drug.
Where [5] appears, read: conc. 10 μM, 46 hours with drug, then 2 hours MTT, ratio to control group without drug.

Regarding “(S)-1,8-Bis[2-(phenylglycin methyl ester)acetamido]anthraquinone [Compound 3j]”, the “inhibition of proliferation of tumor cells GBM 8401 (in words)” value (from here on “inhibition of proliferation … (in words)”) in data set [1] is on record as “inhibit proliferation; also recorded: quite good inhibition effects”. Also, the “inhibition of growth of tumor cells GBM 8901 (in words)” value (shortened to “inhibition of growth … (in words)”) in data set [2] is “inhibit growth”.
The term viability denotes a read-out of living cells in per cent, often relative to untreated cells. In general, melting point refers to the temperature of the solid-liquid transition. `CCN(C)CC(=O)Nc1cccc2c1C(=O)c1c(NC(=O)CN(C)CC)cccc1C2=O` [Compound 3r, 1,8-Bis[2-(ethylmethylamino)acetamido]anthraquinone] gave a melting point of 186 to 187 °C. Moreover, the viability at 10 µM in data set [1] (setting [4]) is 90 ± 2%. For the same molecule, in data set [3], the viability at 46 h, 10 μM was determined as 125 ± 7%. Further, in data set [2] (setting [4]), the viability at 10 µM was 98 ± 12%.
As for `COC(=O)[C@H](CC(C)C)NCC(=O)Nc1cccc2c1C(=O)c1c(NC(=O)CN[C@H](CC(C)C)C(=O)OC)cccc1C2=O` [Compound 3g, 1,8-Bis[2-(leucinemethyl ester)acetamido]anthraquinone], the melting point was 238 to 239 °C. Moreover, in data set [1] (setting [4]), the viability at 10 µM was determined as 111 ± 8%. Also, in data set [3], the viability at 46 h, 10 μM came to 153 ± 11%. The viability at 10 µM in data set [2] (setting [4]) was 89 ± 4%.
The corresponding values for `CCCN(CCC)CCC(=O)Nc1cccc2c1C(=O)c1c(NC(=O)CCN(CCC)CCC)cccc1C2=O` [Compound 4g] are 129 to 130 °C, 5 ± 1%, 4% and 8 ± 2%.
The corresponding values for `CN(C)CCNCCC(=O)Nc1cccc2c1C(=O)c1c(NC(=O)CCNCCN(C)C)cccc1C2=O` [Compound 4e, 1,8-Bis[2-(dimethylethanediamino)propionamido]anthraquinone] are 100 to 102 °C, 14 ± 2%, 13 ± 3% and 10 ± 5%.
The corresponding values for `CC(C)CNCCC(=O)Nc1cccc2c1C(=O)c1c(NC(=O)CCNCC(C)C)cccc1C2=O` [Compound 4b, 1,8-Bis[3-(isobutylamino)propionamido]anthraquinone] are 224 to 225 °C, 4 ± 1%, 4% and 7 ± 3%.
In turn, `COC(=O)CN(C)CC(=O)Nc1cccc2c1C(=O)c1c(NC(=O)CN(C)CC(=O)OC)cccc1C2=O` [Compound 3f, 1,8-Bis[2-(sacrocinemethyl ester)acetamido]anthraquinone] displayed a melting point of 129 to 130 °C. For the same molecule, in data set [1] (setting [4]), the viability at 10 µM was determined as 130 ± 20%. Besides, the viability at 46 h, 10 μM in data set [3] amounted to 172 ± 2%. In addition, the viability at 10 µM in data set [2] (setting [4]) was found to be 107 ± 5%.
The corresponding values for `O=C(CCNCc1cc(F)cc(F)c1)Nc1cccc2c1C(=O)c1c(NC(=O)CCNCc3cc(F)cc(F)c3)cccc1C2=O` [Compound 4c, 1,8-Bis[3-(3,5-difluorobenzylamino)propionamido]anthraquinone] are 190 to 191 °C, 14 ± 1%, over 80% and 11 ± 9%.
In the case of `CCCN(CCC)CC(=O)Nc1cccc2c1C(=O)c1c(NC(=O)CN(CCC)CCC)cccc1C2=O` [Compound 3n, 1,8-Bis[2-(dipropylamino)acetamido]anthraquinone], the viability at 10 µM in data set [1] (setting [4]) amounted to 106 ± 24%; in data set [2] (setting [4]), 73 ± 5%. The viability at 46 h, 10 μM in data set [3] was 73 ± 30%. Also, the “inhibition of growth … (in words)” value in data set [2] is on record as “inhibit growth”.
Consider `CC(C)(C)OC(=O)NCCNCCC(=O)Nc1cccc2c1C(=O)c1c(NC(=O)CCNCCNC(=O)OC(C)(C)C)cccc1C2=O` [Compound 4d, 1,8-Bis[2-(N-Boc-ethanediamino)propionamido]anthraquinone], for which the melting point lay in the range of 101 to 102 °C. Besides, in data set [1] (setting [4]), the viability at 10 µM is 10 ± 5%. Besides, the viability at 46 h, 10 μM in data set [3] was determined as 8 ± 1%. In data set [2] (setting [4]), the viability at 10 µM was 4%.
The corresponding values for `COC(=O)[C@@H](NCC(=O)Nc1cccc2c1C(=O)c1c(NC(=O)CN[C@@H](C(=O)OC)C(C)C)cccc1C2=O)C(C)C` [Compound 3d, (L)-1,8-Bis[2-(valinemethyl ester)acetamido]anthraquinone] are 150 to 151 °C, 99 ± 40%, 87 ± 7% and 97 ± 22%.
On to `CNCCC(=O)Nc1cccc2c1C(=O)c1c(NC(=O)CCNC)cccc1C2=O` [Compound 4h], for which the melting point lay within 233 to 234 °C. Moreover, the viability at 10 µM in data set [1] (setting [4]) was 9 ± 2%. Besides, the viability at 46 h, 10 μM in data set [3] was 4%. The viability at 10 µM in data set [2] (setting [4]) stood at 10 ± 1%.
The corresponding values for `CN(C)CCCNCCC(=O)Nc1cccc2c1C(=O)c1c(NC(=O)CCNCCCN(C)C)cccc1C2=O` [Compound 4j, 1,8-Bis[2-(dimethylpropanediamino)propionamido]anthraquinone] are 107 to 108 °C, 9 ± 2%, 33 ± 16% and 22 ± 9%.
The corresponding values for `O=C(CNCc1cccc(C(F)(F)F)c1)Nc1cccc2c1C(=O)c1c(NC(=O)CNCc3cccc(C(F)(F)F)c3)cccc1C2=O` [Compound 3q, 1,8-Bis [2-(3-(trifluoromethyl)benzylamino)acetamido]anthraquinone] are 190 to 191 °C, 120 ± 26%, 135 ± 20% and 83 ± 10%.
On to `CCN(CC)CC(=O)Nc1cccc2c1C(=O)c1c(NC(=O)CN(CC)CC)cccc1C2=O` [Compound 3l, 1,8-Bis[2-(diethylamino)acetamido]anthraquinone], for which the melting point was 228 to 229 °C. For the same molecule, the viability at 10 µM in data set [1] (setting [4]) is 91 ± 17%. Further, in data set [3], the viability at 46 h, 10 μM is 123 ± 13%. Besides, the viability at 10 µM in data set [2] (setting [4]) was 94 ± 26%.
Consider `CC(C)NCC(=O)Nc1cccc2c1C(=O)c1c(NC(=O)CNC(C)C)cccc1C2=O` [Compound 3o, 1,8-Bis[2-(isopropylamino)acetamido]anthraquinone], for which the viability at 10 µM was 4 ± 1% in data set [1] (setting [4]) and 5 ± 1% in data set [2] (setting [4]). Further, the “inhibition of proliferation … (in words)” value in data set [1] is “inhibit proliferation; also recorded: quite good inhibition effects”. Besides, the viability at 46 h, 10 μM in data set [3] was found to be 4 ± 1%. Further, in data set [2], the “inhibition of growth … (in words)” value was “inhibit growth”.
In turn, `CC(C)NCCC(=O)Nc1cccc2c1C(=O)c1c(NC(=O)CCNC(C)C)cccc1C2=O` [Compound 4i] displayed a melting point of 105 to 106 °C. Further, the viability at 10 µM in data set [1] (setting [4]) was 2 ± 1%. Besides, the viability at 46 h, 10 μM in data set [3] was found to be 5 ± 1%. Besides, the viability at 10 µM in data set [2] (setting [4]) was found to be 8 ± 2%.
For `COC(=O)[C@H](COC(C)(C)C)NCC(=O)Nc1cccc2c1C(=O)c1c(NC(=O)CN[C@H](COC(C)(C)C)C(=O)OC)cccc1C2=O` [Compound 3t, 1,8-Bis[2-(tert-butyl-serinemethyl ester)acetamido]anthraquinone], the values for the viability at 10 µM in data set [1] (setting [4]) and in data set [2] (setting [4]) were 98 ± 19% and 69 ± 4%, respectively. Also, the viability at 46 h, 10 μM in data set [3] is over 80%. Moreover, in data set [2], the “inhibition of growth … (in words)” value is recorded as “inhibit growth”.
Consider `CCN(C)CCC(=O)Nc1cccc2c1C(=O)c1c(NC(=O)CCN(C)CC)cccc1C2=O` [Compound 4k], for which the melting point was 129 to 130 °C. Further, the viability at 10 µM in data set [1] (setting [4]) stood at 1 ± 3%. Also, in data set [3], the viability at 46 h, 10 μM was 2%. Also, the viability at 10 µM in data set [2] (setting [4]) is 7 ± 3%.
`CC(C)CNCC(=O)Nc1cccc2c1C(=O)c1c(NC(=O)CNCC(C)C)cccc1C2=O` [Compound 3k, 1,8-Bis[2-(isobutylamino)acetamido]anthraquinone]: the viability at 10 µM in data set [1] (setting [4]) amounted to 95 ± 12%; in data set [2] (setting [4]), 57 ± 16%. In data set [2], the “inhibition of growth … (in words)” value is “inhibit growth”.
In the case of `CCN(CC)CCC(=O)Nc1cccc2c1C(=O)c1c(NC(=O)CCN(CC)CC)cccc1C2=O` [Compound 4a, 1,8-Bis[3-(diethylamino)propionamido]anthraquinone], the melting point was 160 to 161 °C. The viability at 10 µM in data set [1] (setting [4]) came to 4%. Also, in data set [3], the viability at 46 h, 10 μM amounted to 3%. For the same molecule, the viability at 10 µM in data set [2] (setting [4]) is 3 ± 2%.
For `CCCN(C)CC(=O)Nc1cccc2c1C(=O)c1c(NC(=O)CN(C)CCC)cccc1C2=O` [Compound 3s], the melting point is 159 to 160 °C. In addition, in data set [1] (setting [4]), the viability at 10 µM came to 103 ± 9%. Besides, in data set [3], the viability at 46 h, 10 μM was 132 ± 3%. Moreover, in data set [2] (setting [4]), the viability at 10 µM stood at 107 ± 9%.
On to `CCNCC(=O)Nc1cccc2c1C(=O)c1c(NC(=O)CNCC)cccc1C2=O` [Compound 3p, 1,8-Bis[2-(ethanamino)acetamido]anthraquinone], for which the viability at 10 µM worked out at 2 ± 1% in data set [1] (setting [4]) and 4 ± 1% in data set [2] (setting [4]). Moreover, the “inhibition of proliferation … (in words)” value in data set [1] is reported as “inhibit proliferation; also recorded: quite good inhibition effects”. In addition, the viability at 46 h, 10 μM in data set [3] was found to be 3 ± 1%. The “inhibition of growth … (in words)” value in data set [2] was “inhibit growth”.
Turning to `CN(C)CC(=O)Nc1cccc2c1C(=O)c1c(NC(=O)CN(C)C)cccc1C2=O` [Compound 3m, 1,8-Bis[2-(dimethylamino)acetamido]anthraquinone], the viability at 10 µM in data set [1] (setting [4]) came out at 60 ± 5%; in data set [2] (setting [4]), 84 ± 9%. Besides, in data set [1], the “inhibition of proliferation … (in words)” value was “inhibit proliferation; also recorded: quite good inhibition effects”. Moreover, the viability at 46 h, 10 μM in data set [3] is over 80%.
Regarding `COC(=O)[C@H](C)NCC(=O)Nc1cccc2c1C(=O)c1c(NC(=O)CN[C@H](C)C(=O)OC)cccc1C2=O` [Compound 3i, (D)-1,8-Bis[2-(alalinemethyl ester)acetamido]anthraquinone], the “Cell viability (%) GBM 8401” value in data set [1] (setting [5]) is listed as 64 ± 13%. Besides, in data set [1], the “inhibition of proliferation … (in words)” value was “inhibit proliferation; also recorded: quite good inhibition effects”. Also, the “Cell viability (%) GBM 8901” value in data set [2] (setting [5]) was determined as 99 ± 11%.
